The text below walks through data of patent publication US8609610B2, “Inhibitors of the trypsin-like site of the proteasome and methods of use thereof” (Trustees of Dartmouth College, priority 2011, dated 2013).

Where a name gives a salt, the structure may show the parent alone.

Experiment [1] relates to trypsin-like site of 26S proteasomes. The experiment is described as follows: Inhibition of purified 26S proteasomes, substrate Ac-RLR-amc. Format: biochemical, rabbit. The following applies: for IC50 (Chym-L)/IC50 (Tr-L): rabbit 26S proteasomes.
For experiment [2], the target named is T1, trypsin-like site of 26S proteasomes (Oryctolagus cuniculus, UniProt G1SWK8).
T1 construct: IC50 for sites in 26S proteasomes: Tr-L; other: purified 26S proteasomes; other: 26S proteasomes from rabbit muscles
T1 sequence (G1SWK8 1-271): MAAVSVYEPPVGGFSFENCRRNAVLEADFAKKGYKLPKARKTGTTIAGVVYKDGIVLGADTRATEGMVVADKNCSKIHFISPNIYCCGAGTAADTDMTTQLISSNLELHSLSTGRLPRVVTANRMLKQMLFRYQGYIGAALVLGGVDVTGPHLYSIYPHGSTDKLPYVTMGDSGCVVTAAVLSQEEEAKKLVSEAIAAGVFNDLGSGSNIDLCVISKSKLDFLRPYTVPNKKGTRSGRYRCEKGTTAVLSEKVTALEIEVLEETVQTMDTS
The experiment is described as above. Format: biochemical, rabbit. The following applies: purified 26S proteasomes; >>30 no inhibition at 30 μM, >30 inhibition between 10 and 50% at 30 μM; read-out: IC50 for sites in 26S proteasomes: Tr-L.

Experiment [3] has as its target T2, chymotrypsin-like site of 26S proteasomes (Oryctolagus cuniculus, UniProt G1T4Q9).
T2 sequence (G1T4Q9 1-263): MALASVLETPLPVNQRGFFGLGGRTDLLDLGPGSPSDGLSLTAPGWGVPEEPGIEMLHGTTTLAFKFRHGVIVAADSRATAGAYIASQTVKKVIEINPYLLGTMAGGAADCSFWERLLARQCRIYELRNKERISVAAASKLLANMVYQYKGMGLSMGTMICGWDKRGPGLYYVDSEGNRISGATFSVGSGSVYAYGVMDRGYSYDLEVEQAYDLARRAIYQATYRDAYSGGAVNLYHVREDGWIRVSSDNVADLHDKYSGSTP
The experiment is described as follows: Inhibition of purified 26S proteasomes, substrate Suc-LLVY-amc. The format is biochemical, rabbit. To be noted: >>30 no inhibition at 30 μM, >30 inhibition between 10 and 50% at 30 μM, read-out: IC50 for sites in 26S proteasomes: Chym-L. As to the method: (§1) 26S proteasomes were purified from rabbit muscle using known methods (Screen, et al. (2010) supra). […] NOVEX Bis-Tris gels (12%, Invitrogen) with MOPS running buffer were used for electrophoretic separation of catalytic subunits modified by active-site probes. Inhibition of active sites inside cells was assayed using luminescent PROTEASOMEGLO assay (Promega; Moravec, et al. (2009) Anal. Biochem. 387:294-302) according to known methods (Britton, et al. (2009) supra).

Experiment [4] deals with trypsin-like sites (β2) of proteasome in MM cells. The experiment can be described thus: PROTEASOMEGLO assay of proteasome inhibition in MM cells. The format is cell-based. As to the method:
Proteasome inhibition in MM cells was measured with luminogenic substrates using PROTEASOMEGLO assay (Promega). […] An aliquot of culture was pelleted and medium was removed and replaced with PBS. The resulting cell suspension was mixed with luminogenic substrates in the manufacturer-provided lysis/assay buffer. After 3 minutes mixing on an orbital shaker, the plate was incubated in the dark for additional 17 minutes, followed by the measurements of the luminescence, performed in triplicate for each substrate/data point. Data were analyzed as for purified proteasomes. […] Cells (1×10^6 per well of a 6-well plate) were incubated with the inhibitors for 4 hours at 37° C. and this was followed by a 2 hour incubation with 5 μM BODIPY-TMR-epoxomicin. Subsequently, the medium was removed and the cells were washed with PBS and harvested. […] The supernatant was collected and the protein concentration was determined by the Bradford assay, and used to normalize gel loading. The samples were analysed by SDS-PAGE and fluorescent densitometry as described for competition experiment in cell lysates. IC50 values were calculated from three independent experiments using […] PRISM software.

In experiment [5] the test system is Cathepsin B, H, L, S. The experiment is described as follows: Cathepsin activity with pan-cathepsin substrate Z-FR-amc. The format is cell-based. To be noted: NCI-H929 cells, 6 hour treatment. As to the method: Cathepsin B, H, L, S activity was measured with pan-cathepsin substrate Z-FR-amc (Kirschke & Wiederanders (1994) Methods Enzymol. 244:500-11) in extracts of cytosol-less cells at pH 6.0 (Screen, et al. (2010) supra). Cathepsin D activity was measured in cytosol-less extracts using SENSOLYTE 520 Cathepsin D Fluorometric Assay Kit (AnaSpec). Combined cathepsin D and E activity was measured using the same kit, in which cathepsin D substrate provided with the kit was replaced with 7-Methoxycoumarin-[…](Dnp)-X′-NH2 (SEQ ID NO:10; where “X′” stand for D-Arg) internally quenched fluorogenic substrate of cathepsin D and E. In this case, pH 3.0 assay buffer used for cell extraction. All activity observed using both procedures was inhibited by more than 98% by specific inhibitor of aspartic proteases pepstatin A.

In experiment [6] the target is caspase-like site of 26S proteasomes (Oryctolagus cuniculus, UniProt A0A5F9DQW2). The experiment is described as follows: Inhibition of purified 26S proteasomes, substrate Ac-nLPnLD-amc. Format: biochemical, rabbit. To be noted: >>30 no inhibition at 30 μM, >30 inhibition between 10 and 50% at 30 μM, read-out: IC50 for sites in 26S proteasomes: Casp-L. The method, then:
as §1

Experiment [7] concerns the target T3, β5 proteasome subunit (Homo sapiens, UniProt P20618+P28074).
T3 construct: Whole cell lysates of HEK-293T or EL-4 cells were made by sonication; endogenous in cells; host or cells: HEK-293T
The experiment can be described thus: Competition assay in HEK-293T cell lysate with MV151. Format: biochemical. The following applies: HEK293 extracts. As to the method:
Whole cell lysates of HEK-293T or EL-4 cells were made by sonication in 3 volumes of lysis buffer containing 50 mM Tris pH 7.5, 1 mM DTT, 5 mM MgCl2, 250 mM sucrose, 2 mM ATP, 0.025% digitonin. Protein concentration was determined by the Bradford assay. Cell lysates (13.5 μg total protein for HEK lysates and 9 μg total protein for EL-4 lysates) were exposed to the inhibitors for 1 hour at 37° C. prior to incubation with MV151 (0.5 μM) or BODIPY-TMR-epoxomicin (0.5 μM) for an additional 1 hour at 37° C. Reaction mixtures were boiled with Laemmli's buffer containing (3-mercaptoethanol for 5 minutes before being resolved by 12.5% SDS-PAGE. In-gel detection of residual proteasome activity was performed in the wet gel slabs directly on the TYPHOON Variable Mode Imager (Amersham Biosciences) using the Cy3/Tamra settings (λex 532 nm, λem 560 nm) to detect MV151, BODIPY-TMR-epoxomicin and Cy2/Fam settings (λex 488 nm, λem 520 nm) to detect compounds 39 and 59.
The inhibition potential of the inhibitors for each of the catalytically active subunits was assessed in competition assays employing extracts of human embryonic kidney cells (HEK-293T) and mouse lymphoma cells (EL-4) in combination with the fluorescent broad spectrum proteasome probe MV151 (Verdoes, et al. (2006) Chem. Biol. 13:1217-1226). Competitive inhibition of a proteasome active site is reflected by the disappearance of the corresponding band on a gel.

The subject of experiment [8] is RPMI-8226 cells. The experiment is described as follows: ALAMAR BLUE cell viability assay. The format is cell-based. The following applies: E-64d 10 μM. As to the method:
RPMI-8226 and NCI-H929 cells were cultured in RPMI-1640 supplemented with 10% fetal bovine serum, penicillin, streptomycin, and plasmocin in 5% CO2 humidified incubator. HEK-293T cells were cultured in DMEM containing 10% fetal calf serum, 10 units/mL penicillin, and 10 μg/mL streptomycin in a 7% CO2 humidified incubator. Viability of multiple myeloma cells was measured with ALAMAR BLUE mitochondrial dye conversion assay. Viability of peripheral blood mononuclear cells (PBMNCs) was measured using CELL TITER-GLO luminescent cell viability assay (Promega), which is based on quantification of ATP present in the cells. Caspase-3/7 activity was measured using APO-ONE 3/7 homogeneous assay (Promega).
For orientation: Alamar Blue is a resazurin reagent that responds to reducing activity.

Chain of caspase-like site of 26S proteasomes (A0A5F9DQW2 1-212): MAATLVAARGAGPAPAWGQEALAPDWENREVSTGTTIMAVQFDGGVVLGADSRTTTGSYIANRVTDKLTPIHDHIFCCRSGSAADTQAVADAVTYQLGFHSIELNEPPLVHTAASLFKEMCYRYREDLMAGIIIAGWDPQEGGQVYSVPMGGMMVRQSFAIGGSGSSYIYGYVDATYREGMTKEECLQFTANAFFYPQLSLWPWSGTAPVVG

Turning to “BODIPY-triazole-Phe-Phe(4-CH2NH2.TFA)-Leu-Phe(4-CH2NH2.TFA)-VS [Compound 59]”, the “specificity after attachment of BODIPY-FL dye” value in experiment [1] was “reduced the specificity”.
Broadly, the IC50 is the concentration that inhibits the measured activity by half. For `CC(C)C[C@H](NC(=O)[C@H](Cc1ccc(N)cc1)NC(=O)[C@H](Cc1ccccc1)N=[N+]=[N-])C(=O)N[C@H](/C=C/S(C)(=O)=O)Cc1ccc(CN)cc1` [Compound 51, N3-Phe-Phe (4-NH2. TFA)-Leu-Phe (4-CH2NH2.TFA)-VS], the results for the IC50 in experiment [2] and in experiment [3] were 0.03 µM and 3.4 µM, respectively. In addition, in experiment [4], the “difference in IC50 for trypsin-like activity between NCI-H929 and RPMI-8226” value is recorded as “five-fold”. Moreover, the “inhibition of cathepsins (Z-FR-amc)” value in experiment [5] is given as “behaved similarly to 4a”.
In the case of `CC(C)C[C@@H](/C=C/S(C)(=O)=O)NC(=O)[C@H](CC(C)C)NC(=O)[C@H](Cc1ccc(CN)cc1)NC(=O)[C@H](Cc1ccccc1)N=[N+]=[N-]` [Compound 55, N3-Phe-Phe(4-CH2NH2.TFA)-Leu-Leu-VS], in experiment [1], the “IC50 (Chym-L)/IC50 (Tr-L)” value amounted to 0.057. For the same compound, the IC50 in experiment [3] was determined as 0.01 µM.
`CC(C)C[C@H](NC(=O)[C@H](Cc1ccccc1)N=[N+]=[N-])C(=O)N[C@@H](CC(C)C)C(=O)N[C@H](/C=C/S(C)(=O)=O)Cc1ccncc1` [Compound 46, N3-Phe-Leu-Leu-Ala(4-pyridine)-VS]: the figures for the concentration for half-maximal inhibition (IC50) in experiment [3] and in experiment [6] were < 0.1 µM and > 30 µM, respectively.
For the compound `CC(C)C[C@H](NC(=O)[C@H](Cc1ccccc1)N=[N+]=[N-])C(=O)N[C@@H](CC(C)C)C(=O)N[C@@H](Cc1ccc(N)cc1)C(=O)[C@@]1(C)CO1` [Compound 45b, N3-Phe-Leu-Leu-Phe(4-NH2)-EK], the IC50 in experiment [3] is 0.01 µM; in experiment [6] it was > 30 µM.
Regarding `CC(C)C[C@H](NC(=O)[C@H](Cc1ccccc1)NC(=O)[C@H](Cc1ccccc1)N=[N+]=[N-])C(=O)N[C@H](/C=C/S(C)(=O)=O)Cc1ccccc1` [Compound 58, N3-Phe-Phe-Leu-Phe-VS], the IC50 in experiment [2] and in experiment [6] was > 30 µM each time.
With `CC(C)C[C@H](NC(=O)[C@H](Cc1ccccc1)N=[N+]=[N-])C(=O)N[C@@H](CC(C)C)C(=O)N[C@H](/C=C/S(C)(=O)=O)Cc1ccc(N)cc1` [Compound 45a, N3-Phe-Leu-Leu-Phe(4-NH2)-VS], the IC50 in experiment [2] turned out to be 0.11 µM; in experiment [3], 0.04 µM; in experiment [6], 23 µM.
In the case of `CC(C)C[C@@H](/C=C/S(C)(=O)=O)NC(=O)[C@H](CC(C)C)NC(=O)[C@H](Cc1ccncc1)NC(=O)[C@H](Cc1ccccc1)N=[N+]=[N-]` [Compound 57, N3-Phe-Ala(4-pyridine)-Leu-Leu-VS], the IC50 was 24 µM in experiment [2] and > 30 µM in experiment [6]. In experiment [1], the “IC50 (Chym-L)/IC50 (Tr-L)” value amounted to 0.00021. Also, in experiment [7], the “inhibition of chymotrypsin-like sites in extracts versus purified proteasomes” value was “less potently and selectively in extracts than in purified proteasomes”.
For the compound `CC(C)C[C@H](NC(=O)[C@H](Cc1ccncc1)NC(=O)[C@H](Cc1ccccc1)N=[N+]=[N-])C(=O)N[C@H](/C=C/S(C)(=O)=O)Cc1ccc(CN)cc1` [Compound 50, N3-Phe-Ala (4-pyridine)-Leu-Phe (4-CH2NH2-TFA)-VS], the “inhibition of cathepsins (Z-FR-amc)” value in experiment [5] is on record as “partly reduced cathepsin activity”.
Regarding `Cc1c(O)cccc1C(=O)N[C@H](C(=O)N[C@@H](CO)C(=O)N[C@H](/C=C/S(C)(=O)=O)Cc1ccc(N)cc1)C(C)C` [Compound 49, HMB-Val-Ser-Phe(4-NH2)-VS], the IC50 in experiment [2] is 0.11 µM; in experiment [3], 0.04 µM; in experiment [6] it was 23 µM. Besides, the “IC50 (Chym-L)/IC50 (Tr-L)” value in experiment [1] is 0.36.
Consider `CC(C)C[C@H](NC(=O)[C@H](Cc1ccccc1)N=[N+]=[N-])C(=O)N[C@@H](CC(C)C)C(=O)N[C@@H](Cc1ccc(CN)cc1)C(=O)[C@@]1(C)CO1` [Compound 4b, N3Phe-Leu-Leu-Phe(4-CH2NH2)EK], for which the values for the IC50 in experiment [2] and in experiment [6] were 0.25 µM and 11 µM, respectively.
With `CC(C)C[C@H](NC(=O)[C@H](Cc1ccccc1)N=[N+]=[N-])C(=O)N[C@@H](CC(C)C)C(=O)N[C@H](/C=C/S(C)(=O)=O)CCCCN` [Compound 47, N3-Phe-Leu-Leu-Lys-VS], the IC50 in experiment [6] was > 30 µM.
Turning to `CC(C)C[C@H](NC(=O)[C@H](Cc1ccc(CN)cc1)NC(=O)[C@H](Cc1ccccc1)N=[N+]=[N-])C(=O)N[C@H](/C=C/S(C)(=O)=O)Cc1ccc(N)cc1` [Compound 53, N3-Phe-Phe (4-CH2NH2)-Leu-Phe (4-NH2)—VS], the “IC50 (Chym-L)/IC50 (Tr-L)” value in experiment [1] turned out to be 59. The IC50 in experiment [6] is > 30 µM.
Turning to `CCOC(=O)[C@H]1O[C@@H]1C(=O)N[C@@H](CC(C)C)C(=O)NCCC(C)C` [Compound E-64d], in experiment [8], the sensitization to carfilzomib entry is given as “did not sensitize cells to carfilzomib”.
In the case of `CC(C)C[C@H](NC(=O)[C@H](Cc1ccc(CN)cc1)NC(=O)[C@H](Cc1ccccc1)N=[N+]=[N-])C(=O)N[C@H](/C=C/S(C)(=O)=O)Cc1ccncc1` [Compound 54, N3-Phe-Phe (4-CH2NH2)-Leu-Ala (4 pyridine)-VS], the “IC50 (Chym-L)/IC50 (Tr-L)” value in experiment [1] was found to be 9.1. Moreover, in experiment [6], the IC50 is > 30 µM.
